SMILES strings stand for the structures. Counter-ions that a name gives are not always drawn.

This experiment deals with T1, human alpha 7-wt nAChR (Homo sapiens, UniProt P36544).
T1 construct: expressed in transfected cells
Nature of the experiment: Ca2+ flux imaging (FDSS) (Protocol B). The experiment is classed as cell-based. Particulars: for Emax: efficacy of 100 μM choline defined as 100% in the absence of a PAM, read-out: a7-PAM-G_[33]_Eff_Curve_FI % Efficacy; for EC50: potentiation of 100 μM choline, compounds 0.01 μM to 30 μM, read-out: a7-PAM-G_[33]_pEC50 pEC50 (converted). As to the method: Ca^2+ Flux Imaging (FDSS) (Protocol B)
• Hanks buffered saline solution (HBSS, Invitrogen, Belgium), supplemented with 10 mM HEPES (Invitrogen, Belgium), CaCl2 to a final concentration of 5 mM, 0.1% Bovine serum albumin (Sigma-Aldrich NV, Belgium). b) Calcium-Sensitive Dye—Fluo-4AM • Fluo-4AM (Molecular Probes, USA) was dissolved in DMSO containing 10% Pluronic acid (Molecular Probes, USA) to give a stock solution which was diluted in assay buffer supplemented with 5 mM probenicid (Sigma, Aldrich NV, Belgium) to give a final concentration of 2 μM. c) 384-Well Plates • Black-sided, transparent bottomed 384 well plates coated with poly-D-lysine, PDL pre-coated (Corning, Incorporated, USA) d) Calcium Flux Measurement • A Functional drug screening system (FDSS, Hamamatsu) was used to measure intracellular free-calcium flux signals. Method
Monolayers of human alpha 7-wt nAChR-expressing cells were grown in black-sided, transparent bottomed 384 well plates coated with PDL for 24 hours prior to loading with a fluorescent calcium indicator, fluo-4AM for up to 120 minutes.
PAM activity was detected in real time by applying the compounds to be tested to the loaded cells along with an alpha 7 nicotinic receptor agonist during constant monitoring of cellular fluorescence in a FDSS. Compounds giving peak fluorescent responses greater than the response due to agonist alone, were considered to be alpha 7 nAChR PAMs. The alpha 7 nicotinic receptor agonist was choline, applied at a sub-maximal concentration of 100 μM. In a further setting of the present invention the compounds were applied prior to the alpha 7 nicotinic receptor agonist, in a particular 10 minutes prior to the agonist.
A control response to choline was calculated on each plate from the difference in peak in fluorescence in wells receiving either choline or assay buffer alone. Compounds of the present invention were tested at a concentration range from 0.01 μM to 30 μM. Compounds were considered to have an interesting activity when they potentiated the choline signal at least with 200% when tested at a concentration of 30 μM (the efficacy of 100 μM choline was defined as 100% in the absence of a PAM). An EC50 (or pEC50) was determined as a concentration relating to half the maximal effect, when a clear sigmoidal curve with top plateau was obtained.
In general terms: Calcium flux is commonly read through the fluorescence of an indicator in the cells.

T1 sequence (P36544 23-502): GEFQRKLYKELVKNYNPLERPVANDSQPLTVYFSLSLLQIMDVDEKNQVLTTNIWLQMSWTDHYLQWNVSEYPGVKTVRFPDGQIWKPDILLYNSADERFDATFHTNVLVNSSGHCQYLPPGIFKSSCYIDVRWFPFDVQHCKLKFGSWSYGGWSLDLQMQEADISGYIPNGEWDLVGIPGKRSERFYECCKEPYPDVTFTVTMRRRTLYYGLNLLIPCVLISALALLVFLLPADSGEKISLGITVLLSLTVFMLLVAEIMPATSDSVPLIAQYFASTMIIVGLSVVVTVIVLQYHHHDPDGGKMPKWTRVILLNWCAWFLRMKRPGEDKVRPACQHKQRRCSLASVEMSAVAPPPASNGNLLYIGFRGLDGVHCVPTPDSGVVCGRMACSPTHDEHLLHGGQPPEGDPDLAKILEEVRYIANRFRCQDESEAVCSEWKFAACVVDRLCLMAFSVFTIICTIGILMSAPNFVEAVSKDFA

In the case of `Cc1cc(-c2sc(N3C[C@@H](C)O[C@@H](C)C3)nc2CNC(=O)C2(C)CC2)cc(C)n1` [Compound 34, N-[[2-[(2R,6S)-2,6-dimethyl-4-morpholinyl]-5-(2,6-dimethyl-4-pyridinyl)-4-thiazolyl]methyl]-1-methyl-cyclopropanecarboxamide], the Emax is 237%.

Take `Cc1cc(-c2sc(N3C[C@@H](C)O[C@@H](C)C3)nc2CNC(=O)c2cn(C)nc2C)cc(C)n1` [Compound 169, N-[[2-[(2R,6S)-2,6-dimethyl-4-morpholinyl]-5-(2,6-dimethyl-4-pyridinyl)-4-thiazolyl]methyl]-1,3-dimethyl-1H-pyrazole-4-carboxamide]: the Emax is 671%.

`Cc1cc(-c2sc(N3CCOC[C@@H]3C)nc2CNC(=O)C(C)C)cc(C)n1` [Compound 188, N-[[5-(2,6-dimethyl-4-pyridinyl)-2-[(3S)-3-methyl-4-morpholinyl]-4-thiazolyl]methyl]-2-methyl-propanamide]: the Emax is 685% and the EC50 is 5010 nM.

As for `Cc1cc(-c2sc(N3C[C@@H](C(F)(F)F)O[C@@H](C)C3)nc2CNC(=O)CC2CC2)cc(C)n1` [Compound 204, N-[[5-(2,6-dimethyl-4-pyridinyl)-2-[(2S,6S)-2-methyl-6-(trifluoromethyl)-4-morpholinyl]-4-thiazolyl]methyl]-cyclopropaneacetamide], the Emax turned out to be 392% and the EC50 was 31.6 nM.

For `Cc1cc(-c2sc(N3C[C@@H](C)O[C@@H](C)C3)nc2CNC(=O)CC#N)cc(C)n1` [Compound 170, 2-cyano-N-[[2-[(2R,6S)-2,6-dimethyl-4-morpholinyl]-5-(2,6-dimethyl-4-pyridinyl)-4-thiazolyl]methyl]-acetamide], the Emax came out at 499% and the EC50 was 3090 nM.

Turning to `Cc1cc(-c2sc(N3C[C@@H](C)O[C@@H](C)C3)nc2CNC(=O)c2cc(C(C)(C)C)on2)cc(C)n1` [Compound 143, 5-(1,1-dimethylethyl)-N-[[2-[(2R,6S)-2,6-dimethyl-4-morpholinyl]-5-(2,6-dimethyl-4-pyridinyl)-4-thiazolyl]methyl]-3-isoxazolecarboxamide], the EC50 was 891 nM.

`Cc1cc(-c2sc(N3C[C@@H](C)O[C@@H](C)C3)nc2CNC(=O)c2ccc(F)cc2C)cc(C2CC2)n1` [Compound 107, N-[[5-(2-cyclopropy1-6-methyl-4-pyridinyl)-2-[(2R,6S)-2,6-dimethyl-4-morpholinyl]-4-thiazolyl]methyl]-4-fluoro-2-methyl-benzamide]: the Emax was determined as 780% and the EC50 is 26.9 nM.

For the compound `Cc1cc(-c2sc(N3C[C@@H](C)O[C@@H](C)C3)nc2CNC(=O)C(C)(C)C)cc(C)n1` [Compound 47, N-[[2-[(2R,6S)-2,6-dimethyl-4-morpholinyl]-5-(2,6-dimethyl-4-pyridinyl)-4-thiazolyl]methyl]-2,2-dimethyl-propanamide], the Emax stood at 247%.

Turning to `Cc1cc(-c2sc(N3C[C@@H](C)O[C@@H](C)C3)nc2CNC(=O)c2cc(C3CC3)on2)cc(C)n1` [Compound 127, 5-cyclopropyl-N-[[2-[(2R,6S)-2,6-dimethyl-4-morpholinyl]-5-(2,6-dimethyl-4-pyridinyl)-4-thiazolyl]methyl]-3-isoxazolecarboxamide], the EC50 was 692 nM.

For the compound `Cc1cc(-c2sc(N3C[C@@H](C)O[C@@H](C)C3)nc2CNC(=O)C2(O)CC2)cc(C)n1` [Compound 176, N-[[2-[(2R,6S)-2,6-dimethyl-4-morpholinyl]-5-(2,6-dimethyl-4-pyridinyl)-4-thiazolyl]methyl]-1-hydroxy-cyclopropanecarboxamide], the Emax was determined as 149%.

In the case of `Cc1cc(-c2sc(N3C[C@@H](C)O[C@@H](C)C3)nc2CNC(=O)c2noc3ccccc23)cc(C)n1` [Compound 130, N-[[2-[(2R,6S)-2,6-dimethyl-4-morpholinyl]-5-(2,6-dimethyl-4-pyridinyl)-4-thiazolyl]methyl]-1,2-benzisoxazole-3-carboxamide], the EC50 was 309 nM.

As for `Cc1cc(-c2sc(N3CCOC(C)(C)C3)nc2CNC(=O)c2conc2C)cc(C)n1` [Compound 182, N-[[2-(2,2-dimethyl-4-morpholinyl)-5-(2,6-dimethyl-4-pyridinyl)-4-thiazolyl]methyl]-3-methyl-4-isoxazolecarboxamide•HCl], the Emax was 702% and the EC50 is 1450 nM.

On to `Cc1nocc1C(=O)NCc1nc(N2C[C@@H](C)O[C@@H](C)C2)sc1-c1ccncc1` [Compound 101, N-[[2-[(2R,6S)-2,6-dimethyl-4-morpholinyl]-5-(4-pyridinyl)-4-thiazolyl]methyl]-3-methyl-4-isoxazolecarboxamide], for which the EC50 is 6610 nM.

Regarding `Cc1cc(-c2sc(N3CC(C)OC(C)C3)nc2CNC(=O)c2conc2C)cc(C)n1` (racemic) [Compound 68, N-[[2-[2,6-dimethyl-4-morpholinyl]-5-(2,6-dimethyl-4-pyridinyl)-4-thiazolyl]methyl]-3-methyl-4-isoxazolecarboxamide], the EC50 is 912 nM.

As to `Cc1ccc(-c2sc(N3C[C@@H](C)O[C@@H](C)C3)nc2CNC(=O)c2ccccc2F)cn1` [Compound 124, N-[[2-[(2R,6S)-2,6-dimethyl-4-morpholinyl]-5-(6-methyl-3-pyridinyl)-4-thiazolyl]methyl]-2-fluoro-benzamide], the Emax is 356%.

As for `Cc1cc(-c2sc(N3C[C@@H](C)O[C@@H](C)C3)nc2CNC(=O)c2cc(C)on2)cc(C2CC2)n1` [Compound 105, N-[[5-(2-cyclopropy1-6-methyl-4-pyridinyl)-2-[(2R,6S)-2,6-dimethyl-4-morpholinyl]-4-thiazolyl]methyl]-5-methyl-3-isoxazolecarboxamide], the Emax amounted to 895% and the EC50 is 288 nM.

With `Cc1cc(-c2sc(N3CC(C)OC(C)C3)nc2CNC(=O)C2CCC2)cc(C)n1` (racemic) [Compound 57, N-[[2-[2,6-dimethyl-4-morpholinyl]-5-(2,6-dimethyl-4-pyridinyl)-4-thiazolyl]methyl]-cyclobutanecarboxamide], the Emax is 783% and the EC50 is 692 nM.

For the compound `Cc1cc(-c2sc(N3C[C@@H](C)O[C@@H](C)C3)nc2CNC(=O)c2cc(C)nn2C(C)(C)C)cc(C)n1` [Compound 129, 1-(1,1-dimethylethyl)-N-[[2-[(2R,6S)-2,6-dimethyl-4-morpholinyl]-5-(2,6-dimethyl-4-pyridinyl)-4-thiazolyl]methyl]-3-methyl-1H-pyrazole-5-carboxamide], the EC50 is 912 nM.

In the case of `Cc1ccc(C(=O)NCc2nc(N3C[C@@H](C)O[C@@H](C)C3)sc2-c2cc(C)nc(C)c2)c(C)c1` [Compound 21, N-[[2-[(2R,6S)-2,6-dimethyl-4-morpholinyl]-5-(2,6-dimethyl-4-pyridinyl)-4-thiazolyl]methyl]-2,4-dimethyl-benzamide], the Emax amounted to 572% and the EC50 was 72.4 nM.

Consider `Cc1cc(-c2sc(N3C[C@@H](C)O[C@@H](C)C3)nc2CNC(=O)c2ccoc2)cc(C)n1` [Compound 141, N-[[2-[(2R,6S)-2,6-dimethyl-4-morpholinyl]-5-(2,6-dimethyl-4-pyridinyl)-4-thiazolyl]methyl]-3-furancarboxamide], for which the Emax worked out at 764% and the EC50 was 692 nM.

With `Cc1cc(-c2sc(N3C[C@@H](C)O[C@@H](C)C3)nc2CNC(=O)C2CCCC2)cc(C)n1` [Compound 16, N-[[2-[(2R,6S)-2,6-dimethyl-4-morpholinyl]-5-(2,6-dimethyl-4-pyridinyl)-4-thiazolyl]methyl]-cyclopentanecarboxamide], the Emax worked out at 651% and the EC50 is 22.4 nM.

For the compound `Cc1cc(-c2sc(N3C[C@@H](C)O[C@@H](C)C3)nc2CNC(=O)C2CCC2)c(C)cn1` [Compound 95, N-[[2-[(2R,6S)-2,6-dimethyl-4-morpholinyl]-5-(2,5-dimethyl-4-pyridinyl)-4-thiazolyl]methyl]-cyclobutanecarboxamide], the Emax was determined as 299% and the EC50 was 2090 nM.

Turning to `Cc1cc(-c2sc(N3C[C@@H](C)O[C@@H](C)C3)nc2CNC(=O)c2ccc(F)c(C(F)(F)F)c2)cc(C)n1` [Compound 33, N-[[2-[(2R,6S)-2,6-dimethyl-4-morpholinyl]-5-(2,6-dimethyl-4-pyridinyl)-4-thiazolyl]methyl]-4-fluoro-3-(trifluoromethyl)-benzamide], the Emax was found to be 519% and the EC50 was 275 nM.

Source of the values: patent publication US8637510B2, “Morpholinothiazoles as alpha 7 positive allosteric modulators” (Janssen Pharmaceutica NV, priority 2009, dated 2014).
